Source: patent US20240410013A1, “METHODS AND COMPOSITIONS FOR CLASSIFYING AND TREATING KIDNEY CANCER” (Genentech, Inc., priority 2021, published 2024)

System: previously untreated advanced renal cell carcinoma
Experiment: IMmotion151 (NCT02420821) Phase 3 randomized trial, atezolizumab plus bevacizumab versus sunitinib, clinical outcomes by biomarker subgroup
Format: in vivo, human
From the text: IMmotion151 (NCT02420821) was a multicenter, open-label, Phase 3, randomized controlled trial of atezolizumab plus bevacizumab (n=454) versus sunitinib (n=461) in patients with previously untreated advanced RCC (Rini et al. Lancet. 393: 2404-2415 (2019)). The study design, methods, and primary clinical findings from IMmotion151 have been reported previously (Rini et al. Lancet. 393: 2404-2415 (2019)).
Briefly, previously untreated patients with unresectable locally advanced or metastatic renal cell carcinoma with any component of clear-cell or sarcomatoid histology were randomized to receive atezolizumab 1200 mg+bevacizumab 15 mg/kg (atezolizumab+bevacizumab) once every 3 weeks (n=454) or sunitinib 50 mg once daily (n=461; 4 weeks on, 2 weeks off). The co-primary endpoints were investigator-assessed progression-free survival (PFS) in patients with ≥1% expressing PD-L1 on immune cells (IC, PD-L1^+) and overall survival (OS) in the intent-to-treat (ITT) population.
IMmotion151 (NCT02420821) was a multicenter, open-label, Phase 3, randomized controlled trial of atezolizumab plus bevacizumab (n=454) vs. sunitinib (n=461) in patients with previously untreated advanced renal cell carcinoma (Rini et al. Lancet. 393: 2404-2415 (2019)).
RNA-seq data from the randomized Phase II trial IMmotion150 were processed as described above. Transcriptional signature scores were derived from T-effector and angiogenesis signatures (McDermott et al. Nat Med. 24: 749-757 (2018)) for each sample, and hazard ratios were calculated at various gene expression scores. Gene expression score cutoffs of 2.93 (40% prevalence) and 5.82 (50% prevalence) were defined for the T-effector and angiogenesis signatures in IMmotion150 based on a combination of prevalence and hazard ratio plateauing. These absolute thresholds were prospectively applied to the IMmotion151 data to classify tumors with high and low T-effector and angiogenesis signatures. Cox-proportional hazard regression models were fit to compare PFS in atezolizumab+bevacizumab or sunitinib-treated patients in gene expression high and low subsets.
All analyses were conducted using Rv3.6.1. Unless otherwise stated, all comparisons for continuous variables use the two-sided Mann-Whitney test (R function wilcox.test) for two groups and the Kruskal-Wallis test (R function kruskal.test) for more than two groups. Dunn's post-hoc test was applied with Benjamini-Hochberg multiple testing correction for pairwise comparisons. For categorical variables, Pearson's Chi-squared test with continuity correction was used (R function chisq.test). Unless otherwise stated, false discovery rate (FDR)-adjusted p-values are reported. *: p<0.05; **: p<0.01; ***: p<0.001. Survival analyses were conducted using Cox-proportional hazard models using the R survival package (v 3.1.7). Log-rank p-values were reported for survival analyses including more than two groups. For all boxplots, the horizontal line represents the median. The lower and upper hinges correspond to the first and third quartiles. The upper whisker extends from the hinge to the largest value no further than 1.5*IQR from the hinge (where IQR is the inter-quartile range, or distance between the first and third quartiles). The lower whisker extends from the hinge to the smallest value at most 1.5*IQR of the hinge.

[1] = tumors with CDKN2A/B alterations

SMILES: CCN(CC)CCNC(=O)c1c(C)[nH]c(/C=C2\C(=O)Nc3ccc(F)cc32)c1C [sunitinib]
- ORR (PBRM1 non-mutant tumors): 27%
- mPFS (PBRM1 non-mutant tumors): 6.9 months
- ORR (Proliferative cluster (#5)): 3.1%
- mPFS (Stromal/Proliferative cluster (printed #5)): 5.2 months
- objective response rate (ORR) (T-effector/Proliferative cluster (#4)): 19.4%
- mPFS (loss-of-function mutations in ARID1A): 6.8 months
- mPFS (loss-of-function mutations in KMT2C): 7.0 months
- Objective response rate (sRCC (sarcomatoid RCC) patients, RECIST 1.1): 14%
- mPFS (tumors harboring PBRM1 mutations): 11.2 months
- ORR [1]: 20%
- complete responses [1]: 0%
- mPFS [1]: 4.1 months
- PFS hazard ratio, Angiogenesis signature high vs low (within sunitinib treatment arm, 95% CI 0.47, 0.75): 0.59
- PFS hazard ratio, PBRM1 mutant vs non-mutant tumors (within sunitinib-treated patients, 95% CI 0.51, 0.87): 0.67
